Data taken from paper PMC6980389 (Chembiochem : a European journal of chemical biology, 2018).
Where two headings read alike, the source gives them in different places.

How the values were obtained:
U937 leukemia cells [1] = experiment: U937 cell attachment at 60 h, alone or with 10 nM PMA; format: cell-based; conditions: ligand alone
Toledo cells = experiment: Growth of Toledo cells; format: cell-based; conditions: 72 h; for IC50: read-out: IC50, growth inhibition of Toledo cells
PKCδ = PKCδ (Homo sapiens, UniProt Q05655); experiment: Downregulation of PKCδ in U937 cells; format: cell-based; conditions: 24 h
Sequence of PKCδ (Q05655 whole entry): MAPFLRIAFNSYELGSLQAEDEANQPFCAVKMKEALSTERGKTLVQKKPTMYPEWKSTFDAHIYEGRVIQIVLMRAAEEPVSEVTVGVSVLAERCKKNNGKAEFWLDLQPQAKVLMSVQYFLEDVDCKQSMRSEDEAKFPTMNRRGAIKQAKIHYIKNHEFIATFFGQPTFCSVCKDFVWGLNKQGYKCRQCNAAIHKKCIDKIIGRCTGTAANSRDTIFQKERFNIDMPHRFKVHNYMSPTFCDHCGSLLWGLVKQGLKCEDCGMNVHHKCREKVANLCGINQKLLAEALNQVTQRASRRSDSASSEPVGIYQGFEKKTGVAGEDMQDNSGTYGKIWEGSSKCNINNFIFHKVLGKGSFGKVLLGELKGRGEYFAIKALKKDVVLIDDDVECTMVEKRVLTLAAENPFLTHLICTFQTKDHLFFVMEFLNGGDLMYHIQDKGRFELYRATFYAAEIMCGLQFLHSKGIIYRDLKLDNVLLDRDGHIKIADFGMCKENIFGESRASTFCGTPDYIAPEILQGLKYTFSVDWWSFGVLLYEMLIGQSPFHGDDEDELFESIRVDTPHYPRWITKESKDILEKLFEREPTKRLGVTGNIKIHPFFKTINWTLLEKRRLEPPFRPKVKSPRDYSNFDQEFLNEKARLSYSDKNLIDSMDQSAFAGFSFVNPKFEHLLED

U937 leukemia cells [2] = conditions: proliferation and attachment assays; ref 12b-e; cited from earlier work
mCherry PKCδ = mCherry PKCδ (Homo sapiens, UniProt Q05655); experiment: Translocation of mCherry-tagged PKCδ in LNCaP cells; format: cell-based; conditions: 1 μM ligand
Sequence of mCherry PKCδ (Q05655 whole entry): as above

PKCβII = PKCβII (Homo sapiens, UniProt P05771); experiment: Downregulation of PKCβII in U937 cells; format: cell-based; conditions: 24 h
Sequence of PKCβII (P05771 1-673 isoform P05771-2): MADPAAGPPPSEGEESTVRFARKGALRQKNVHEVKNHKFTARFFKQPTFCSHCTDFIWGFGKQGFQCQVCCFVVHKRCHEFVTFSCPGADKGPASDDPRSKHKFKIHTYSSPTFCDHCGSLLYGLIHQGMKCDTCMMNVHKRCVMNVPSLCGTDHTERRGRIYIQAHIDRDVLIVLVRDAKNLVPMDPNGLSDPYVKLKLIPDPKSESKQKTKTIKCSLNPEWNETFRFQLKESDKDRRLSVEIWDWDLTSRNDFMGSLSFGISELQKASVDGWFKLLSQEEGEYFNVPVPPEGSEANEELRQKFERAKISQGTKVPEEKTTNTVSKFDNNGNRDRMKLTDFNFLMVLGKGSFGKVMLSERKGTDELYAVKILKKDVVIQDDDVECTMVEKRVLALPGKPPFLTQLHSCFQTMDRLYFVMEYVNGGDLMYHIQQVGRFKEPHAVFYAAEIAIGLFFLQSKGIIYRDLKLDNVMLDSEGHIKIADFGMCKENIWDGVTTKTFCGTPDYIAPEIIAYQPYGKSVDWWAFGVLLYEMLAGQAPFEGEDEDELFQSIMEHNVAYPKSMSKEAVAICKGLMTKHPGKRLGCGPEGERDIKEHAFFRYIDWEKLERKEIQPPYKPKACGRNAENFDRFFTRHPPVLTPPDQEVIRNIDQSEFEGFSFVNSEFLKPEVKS

Structure (SMILES)	Effect on attachment of U937 cells (U937 leukemia cells [1])	IC50 (Toledo cells) [nM]	Downregulation of PKCδ (PKCδ)	Pattern of biological activity in U937 cells (PMA-like or bryostatin-like) (U937 leukemia cells [2])	Effect on Toledo cell growth (Toledo cells)	IC50 (Toledo cells; Homo sapiens, Toledo) [nM]	Translocation of PKCδ (mCherry PKCδ)	Downregulation of PKCβII (PKCβII)
C=C1C[C@@H]2C[C@@H]3CC(=C)C[C@H](/C=C/C(C)(C)[C@]4(O)O[C@@H](C/C(=C\C(=O)OC)[C@@H]4OC(=O)/C=C/C=C/CCC)C[C@H]([C@@H](C)O)OC(=O)C[C@H](O)C[C@H](C1)O2)O3 [Merle 23]	induced attachment	0.33 ± 0.11	less potent than Merle 45 for downregulation but again showed no protection of PKCδ downregulation at high doses	largely PMA-like				
C=C1C[C@H]2C[C@H]3C[C@@H](OC(C)=O)C[C@@H](C[C@@H](O)CC(=O)O[C@@H]([C@@H](C)O)C[C@@H]4C/C(=C\C(=O)OC)[C@H](OC(=O)CCCCCCC)[C@@](O)(O4)C(C)(C)/C=C/[C@@H](C1)O2)O3 [Merle 27]				PMA-like				
C=C1C[C@H]2CC3(O)O[C@H](C[C@@H](O)CC(=O)O[C@@H]([C@@H](C)O)C[C@@H]4C/C(=C\C(=O)OC)[C@H](OC(=O)/C=C/C=C/CCC)[C@@](O)(O4)C(C)(C)/C=C/[C@@H](C1)O2)C[C@H](OC(C)=O)C3(C)C [Merle 28]	did not inhibit proliferation (Figure 1) or induce attachment	0.111 ± 0.009		bryostatin-like				
CCCCCCCCCCCCCC(=O)O[C@@H]1[C@@H](C)[C@@]2(O)[C@@H](C=C(CO)C[C@]3(O)C(=O)C(C)=C[C@@H]23)[C@@H]2C(C)(C)[C@]12OC(C)=O [PMA, phorbol 12-myristate 13-acetate]	induced attachment				inhibited Toledo cell growth	0.57 ± 0.27	characteristic translocation of PKCδ to the plasma and nuclear membranes, as well as to internal membranes	downregulated PKCβII at 24 h
CCC/C=C/C=C/C(=O)O[C@H]1/C(=C/C(=O)OC)C[C@H]2C[C@H]([C@@H](C)O)OC(=O)C[C@H](O)C[C@@H]3C[C@H](OC(C)=O)C(C)(C)[C@](O)(C[C@@H]4C/C(=C/C(=O)OC)C[C@H](/C=C/C(C)(C)[C@]1(O)O2)O4)O3 [bryostatin 1]	did not inhibit proliferation (Figure 1) or induce attachment				inhibited Toledo cell growth	0.091 ± 0.026		
